Measurements from US20100278858A1, “PROCESS FOR PREPARING […] STRAINS” (priority 2007, published 2010).
In brackets after ≈: the same amount, converted by molar mass.

Columns and labels:
Assay in all cases: method of reducing viral plates (plaque reduction)
HSV-1 TK^− B2006 = assay type: cell-based; details: for IC50: Human alphaherpesvirus 1; for Relative resistance (RR): IC50 of HSV-1 TK^− B2006 / IC50 of HSV-1 (F)
Procedure: (§1) According to the present invention, a method of reducing the viral plates comprises the following process: Vero cells monolayers developed in 24 wells microplates are infected with 50 UFP/well of virus in the absence or presence of different compounds concentrations. Each dilution is tested by duplicate. After 1 hour adsorption at 37° C., the inoculum is removed and covered by plating medium (culture media with methylcellulose at a final concentration of 0.7%). Inoculation is continued till the viral plates' appearance, which are then counted after fitting and dying the cells with violet crystal. Moreover, according to the present invention, 50% inhibitory concentration (IC50) means the compound concentration required for reducing about 50% the number of viral plates.
(§2) Thus, preliminary tests of the cloned variants of passages with greater selection pressure of 1C3 (17, 20 and 21) with pyrimidine and purine analogous as aciclovir (ACV) and brivudin (BVDU) would disclose alterations at viral TK level as it is shown in Table VIII, a characteristic that, up to date, has not been published in previous art documents. The TK gene is not essential for the in vitro viral replication, though in vivo, is involved in the virulence, pathogenicity and reactivation since latency (Andrei G et al., 2005). […] Therefore, the selection pressure to which the viruses were subjected could have selected mutations in the TK gene and in additional superimposing genes generating strains with less in vivo pathogenic action (Jacobson J et al., 1993).

1C3 syn 17-2 = assay type: cell-based, HSV-1; details: for IC50: Human alphaherpesvirus 1, strain 1C3 syn 17-2, read-out: IC50; for Relative resistance (RR): IC50 of clone 1C3 syn 17-2 / IC50 of HSV-1 (F)
Procedure: as §1, §2

1C3 syn 21-1 = assay type: cell-based, HSV-1; details: for IC50: Human alphaherpesvirus 1, strain 1C3 syn 21-1, read-out: IC50; for Relative resistance (RR): IC50 of clone 1C3 syn 21-1 / IC50 of HSV-1 (F)
Procedure: as §1, §2

1C3 syn 20-3 = assay type: cell-based, HSV-1; details: for IC50: Human alphaherpesvirus 1, strain 1C3 syn 20-3, read-out: IC50; for Relative resistance (RR): IC50 of clone 1C3 syn 20-3 / IC50 of HSV-1 (F)
Procedure: as §1, §2

1C3 syn 20-2 = assay type: cell-based, HSV-1; details: for IC50: Human alphaherpesvirus 1; for Relative resistance (RR): IC50 of clone 1C3 syn 20-2 / IC50 of HSV-1 (F)
Procedure: as §1, §2

1C3 syn 17-1 = assay type: cell-based, HSV-1; details: for IC50: Human alphaherpesvirus 1, strain 1C3 syn 17-1, read-out: IC50; for Relative resistance (RR): IC50 of clone 1C3 syn 17-1 / IC50 of HSV-1 (F)
Procedure: as §1, §2

1C3 syn 20-1 = assay type: cell-based, HSV-1; details: for IC50: Human alphaherpesvirus 1, strain 1C3 syn 20-1, read-out: IC50; for Relative resistance (RR): IC50 of clone 1C3 syn 20-1 / IC50 of HSV-1 (F)
Procedure: as §1, §2

1C3 syn 21-3 = assay type: cell-based, HSV-1; details: for IC50: Human alphaherpesvirus 1, strain 1C3 syn 21-3, read-out: IC50; for Relative resistance (RR): IC50 of clone 1C3 syn 21-3 / IC50 of HSV-1 (F)
Procedure: as §1, §2

1C3 syn 17-3 = assay type: cell-based, HSV-1; details: for IC50: Human alphaherpesvirus 1, strain 1C3 syn 17-3, read-out: IC50; for Relative resistance (RR): IC50 of clone 1C3 syn 17-3 / IC50 of HSV-1 (F)
Procedure: as §1, §2

1C3 syn 21-2 = assay type: cell-based, HSV-1; details: for IC50: Human alphaherpesvirus 1, strain 1C3 syn 21-2, read-out: IC50; for Relative resistance (RR): IC50 of clone 1C3 syn 21-2 / IC50 of HSV-1 (F)
Procedure: as §1, §2

1C3-syn-14-1 = assay type: cell-based, HSV-1; details: for IC50: Human alphaherpesvirus 1, strain 1C3 syn 14-1, read-out: IC50; for IC50 / Relative resistance (RR): Table VIII; for Relative resistance (RR): IC50 of clone 1C3 syn 14-1 / IC50 of HSV-1 (F); for susceptibility of variant to drug (in words): variant 1C3-syn-14-1
Procedure: as §1
(§3) Compounds were present during the viral adsorption (1h, 37° C.) and after the infection. When a cytopathic action (ACP) between 80-90%, during a period among 24 to 72 hours p.i., was observed, cells were lysed with freeze-thawing cycles. In order to remove cellular moieties, the cellular lisate was centrifuged during 10 min at 1000 rpm, keeping the supernatant at −70° C. The supernatant was used to infect a new monolayer in the presence of SAMMA or PRO2000. […] The title and the IC50 of each viral passage was determined by viral plates reduction test (or after 2-3 passages) against SAMMA or PRO20000.

HSV-1 (F) = assay type: cell-based; details: Human alphaherpesvirus 1; Table VIII; strain HSV-1 (F); read-out: IC50
Procedure: as §1, §3

Structure (SMILES) | IC50 (HSV-1 TK^− B2006) | Relative resistance (RR) (HSV-1 TK^− B2006) | IC50 (1C3 syn 17-2) | Relative resistance (RR) (1C3 syn 17-2) | IC50 (1C3 syn 21-1) | Relative resistance (RR) (1C3 syn 21-1) | IC50 (1C3 syn 20-3) | Relative resistance (RR) (1C3 syn 20-3) | IC50 (1C3 syn 20-2) | Relative resistance (RR) (1C3 syn 20-2) | IC50 (1C3 syn 17-1) | Relative resistance (RR) (1C3 syn 17-1) | IC50 (1C3 syn 20-1) | Relative resistance (RR) (1C3 syn 20-1) | IC50 (1C3 syn 21-3) | Relative resistance (RR) (1C3 syn 21-3) | IC50 (1C3 syn 17-3) | Relative resistance (RR) (1C3 syn 17-3) | IC50 (1C3 syn 21-2) | Relative resistance (RR) (1C3 syn 21-2) | other results
O=c1[nH]c(=O)n([C@H]2C[C@H](O)[C@@H](CO)O2)cc1/C=C/Br [Brivudin, brivudin] | > 0.16 µg/mL | 16.0 | 0.13 µg/mL (≈ 0.39 µM) | 13.0 | 0.04 µg/mL (≈ 0.12 µM) | 4.0 | 0.06 µg/mL (≈ 0.18 µM) | 6.0 | 0.05 µg/mL (≈ 0.15 µM) | 5.6 | 0.08 µg/mL (≈ 0.24 µM) | 8.0 | 0.08 µg/mL (≈ 0.24 µM) | 8.0 | 0.06 µg/mL (≈ 0.18 µM) | 6.0 | 0.08 µg/mL (≈ 0.24 µM) | 8.0 | 0.06 µg/mL (≈ 0.18 µM) | 6.0 | IC50 (1C3-syn-14-1): 0.02 µg/mL (≈ 0.06 µM); Relative resistance (RR) (1C3-syn-14-1): 2.0; susceptibility of variant to drug (in words) (1C3-syn-14-1): rare resistance; IC50 (HSV-1 (F)): 0.01 µg/mL (≈ 0.03 µM)
Nc1nc2c(ncn2COCCO)c(=O)[nH]1 [Aciclovir, aciclovir] | > 0.5 µg/mL | 10.0 | 0.2 µg/mL (≈ 0.888 µM) | 4.0 | 0.2 µg/mL (≈ 0.888 µM) | 4.0 | 0.2 µg/mL (≈ 0.888 µM) | 4.0 | 0.2 µg/mL (≈ 0.888 µM) | 4.0 | 0.28 µg/mL (≈ 1.24 µM) | 5.6 | 0.4 µg/mL (≈ 1.78 µM) | 8.0 | 0.2 µg/mL (≈ 0.888 µM) | 4.0 | 0.2 µg/mL (≈ 0.888 µM) | 4.0 | 0.4 µg/mL (≈ 1.78 µM) | 8.0 | IC50 (1C3-syn-14-1): 0.1 µg/mL (≈ 0.444 µM); Relative resistance (RR) (1C3-syn-14-1): 2.0; susceptibility of variant to drug (in words) (1C3-syn-14-1): rare resistance; IC50 (HSV-1 (F)): 0.05 µg/mL (≈ 0.222 µM)
